Active and inactive are the calls of the source. How the calls were made is not given here.
Molecular target: Chaperone protein DnaK (Escherichia coli (strain K12)) (UniProt P0A6Y8)
Assay: binders of DnaK substrate-binding domain, biophysical, NMR, chaperone (AID 1033)
Conditions: Purified DnaK SBD, NMR ligand binding

Sequence of Chaperone protein DnaK (Escherichia coli (strain K12)) (P0A6Y8 whole entry, looked up, the tested form may be a part): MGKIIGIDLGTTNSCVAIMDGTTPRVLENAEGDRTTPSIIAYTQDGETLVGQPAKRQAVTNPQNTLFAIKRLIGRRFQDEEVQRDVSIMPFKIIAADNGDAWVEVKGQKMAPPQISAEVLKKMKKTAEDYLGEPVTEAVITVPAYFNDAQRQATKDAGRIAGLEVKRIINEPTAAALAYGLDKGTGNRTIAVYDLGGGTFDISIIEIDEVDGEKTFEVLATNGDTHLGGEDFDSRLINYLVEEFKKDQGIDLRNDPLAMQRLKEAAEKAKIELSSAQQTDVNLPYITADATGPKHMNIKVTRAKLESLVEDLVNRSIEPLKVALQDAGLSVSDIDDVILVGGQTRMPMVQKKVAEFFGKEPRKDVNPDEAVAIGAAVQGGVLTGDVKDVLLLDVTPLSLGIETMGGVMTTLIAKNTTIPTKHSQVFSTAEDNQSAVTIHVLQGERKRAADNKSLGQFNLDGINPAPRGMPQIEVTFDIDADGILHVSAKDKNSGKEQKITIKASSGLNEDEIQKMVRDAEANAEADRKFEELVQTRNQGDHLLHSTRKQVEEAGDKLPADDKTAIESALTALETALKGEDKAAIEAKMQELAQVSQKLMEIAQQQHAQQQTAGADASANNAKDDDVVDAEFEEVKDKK

Nc1c(/C=C2\C=Nc3ccccc32)c(=O)nc2scnn12
Kd: > 4 mM (inactive)

c1ccc(-c2noc(-c3ccc4c(c3)OCO4)n2)nc1
Kd: > 4 mM (inactive)

O=C1NC2NC(=O)N(c3ccccc3)C2N1 (centres undefined)
Kd: > 4 mM (inactive)

CCOC(=O)c1c(C)cc(O)c(C=O)c1O
Kd: > 4 mM (inactive)

CS(=O)(=O)c1ccc(N)cc1
Kd: > 4 mM (inactive)

O=C(c1nc2ccccc2s1)N1CCSCC1
Kd: > 4 mM (inactive)

Cc1noc(C)c1C(=O)NC1=NCCS1
Kd: > 4 mM (inactive)

COCC(=O)Nc1nc2ccc(C)cc2s1
Kd: > 4 mM (inactive)

Cc1cc(C)n(-c2nc(C)nc(N)n2)n1
Kd: > 4 mM (inactive)

CC(Sc1ncn[nH]1)C(=O)O (centres undefined)
Kd: > 4 mM (inactive)

Cc1ccc(C(=O)Nn2cnnc2)s1
Kd: > 4 mM (inactive)

O=C(c1ccco1)N1C(=O)c2cccc3cccc1c23
Kd: > 4 mM (inactive)

CC(=O)N1CCC(NC2CCCCCC2)CC1
Kd: > 4 mM (inactive)

Cc1cc(C(=O)N2CCN(c3ccccn3)CC2)c(C)o1
Kd: > 4 mM (inactive)

CC(=O)O[C@@H]1CC2C(C)(C)[C@H](O)CC[C@]2(C)C2CC[C@@]3(C)[C@H](c4ccoc4)OC(=O)C4OC43[C@@]21C (some centres undefined)
Kd: > 4 mM (inactive)

C=C[C@@]1(C)CC(=O)[C@@]2(O)[C@](C)(O1)[C@@H](OC(C)=O)[C@@H](O)C1C(C)(C)CC[C@H](O)[C@@]12C (some centres undefined)
Kd: > 4 mM (inactive)

O=C(NCN1CCOCC1)c1cnccn1
Kd: > 4 mM (inactive)

O=C(NCc1ccccc1)c1ccc[n+]([O-])c1
Kd: > 4 mM (inactive)

O=c1c2ccccc2[nH]c2ncccc12
Kd: > 4 mM (inactive)

Cn1ccc(C(=O)NC(=S)NN2CCOCC2)n1
Kd: > 4 mM (inactive)

CC(=O)Nc1ccc(N2C(=O)C=CC2=O)cc1C
Kd: > 4 mM (inactive)

Cc1ccc(C(=O)NCCO)c(Cl)c1
Kd: > 4 mM (inactive)

O=C(Nc1nc2ccccc2s1)c1ccc(=O)[nH]n1
Kd: > 4 mM (inactive)

COc1ccc(-c2coc3cc(O)ccc3c2=O)c(OC)c1
Kd: > 4 mM (inactive)

CCOC(=O)C1CCN(c2ncnc3nc[nH]c23)CC1
Kd: > 4 mM (inactive)

O=C(O)CCNc1n[nH]c(=O)[nH]c1=O
Kd: > 4 mM (inactive)

Cn1c(=O)[nH]c(=O)c2nsnc21
Kd: > 4 mM (inactive)

COc1cc([C@@H]2c3cc4c(cc3C(OC3O[C@@H]5COC(C)O[C@H]5[C@H](O)[C@H]3O)C3COC(=O)[C@@H]32)OCO4)cc(OC)c1O (some centres undefined)
Kd: > 4 mM (inactive)

COc1ccccc1NC(=O)/C=N/O
Kd: > 4 mM (inactive)

CC1CCC(N2CCN(c3ncccn3)CC2)CC1 (centres undefined)
Kd: > 4 mM (inactive)

CC(=O)n1c(N)nc2ccccc21
Kd: > 4 mM (inactive)

Cc1nc(NCc2ccco2)nc2c1C(=O)CC(C)C2 (centres undefined)
Kd: > 4 mM (inactive)

O=C(CC1CCCCC1)N1CCN(c2ccccn2)CC1
Kd: > 4 mM (inactive)

O=C(/C=C/C=C/c1ccc2c(c1)OCO2)N1CCCCC1
Kd: > 4 mM (inactive)

O=C(O)/C=C(\CC(=O)O)C(=O)O
Kd: > 4 mM (inactive)

NCc1ccc2c(c1)CCO2
Kd: > 4 mM (inactive)

CO[C@H]1[C@@H](O)[C@@H](C)O[C@H](O[C@H]2CCC3(C)C4CCC5(C)[C@@H](C6=CC(=O)OC6)CC[C@]5(O)[C@@H]4CC[C@]3(O)C2)[C@@H]1O (some centres undefined)
Kd: > 4 mM (inactive)

NC(=O)C1CCN(C(=S)c2cccs2)CC1
Kd: > 4 mM (inactive)

CCSc1nnc(-c2ccccc2N)c(=O)[nH]1
Kd: > 4 mM (inactive)

C=C(C)C1CC=C(CO)CC1 (centres undefined)
Kd: > 4 mM (inactive)

Cn1c(CSc2nc3ccccc3s2)n[nH]c1=S
Kd: > 4 mM (inactive)

CCOC(=O)c1c(C)cc(O)cc1O
Kd: > 4 mM (inactive)

O=C(c1ccccc1)N1CCOCC1
Kd: > 4 mM (inactive)

Cc1cc(=O)[nH]c(NCc2cccnc2)n1
Kd: > 4 mM (inactive)

CNC(=O)n1ccc(C(=O)N2CCCCC2)n1
Kd: > 4 mM (inactive)

Cc1n[nH]c(C)c1NC(=O)c1cccc(F)c1
Kd: > 4 mM (inactive)

NC(=O)Cc1nc2ccccc2[nH]1
Kd: > 4 mM (inactive)

O=[N+]([O-])c1c[n+]([O-])n(-c2ccccc2)n1
Kd: > 4 mM (inactive)

O=S(=O)(NCc1ccco1)c1cccc2cccnc12
Kd: > 4 mM (inactive)

NC(=O)C1CC2C=CC1C2 (centres undefined)
Kd: > 4 mM (inactive)

Cc1ncoc1C(=O)Nc1ccccc1C(N)=O
Kd: > 4 mM (inactive)

CC(=O)c1cccc(NC(=O)N2CCc3ccccc3C2)c1
Kd: > 4 mM (inactive)

CC(=O)O[C@H]1C[C@@H](OC(C)=O)C(C)(C)C2C[C@@H](OC(C)=O)[C@]3(C)C(CC[C@@]4(C)[C@H](c5ccoc5)C(=O)[C@H]5O[C@]543)[C@]21C (some centres undefined)
Kd: > 4 mM (inactive)

Cc1ccccc1NC(=O)CSc1ccnc(=O)[nH]1
Kd: > 4 mM (inactive)

NC(=O)CSc1nnc2ccc3ccccc3n12
Kd: > 4 mM (inactive)

Cc1nc(-c2ccccc2)sc1CO
Kd: > 4 mM (inactive)

CC(=O)Nc1ccncc1NC(C)=O
Kd: > 4 mM (inactive)

COc1ccc(C2NC(C(=O)O)CS2)cc1 (centres undefined)
Kd: > 4 mM (inactive)

CC(=O)Oc1ccc(-c2cc(=O)c3c(OC(C)=O)cc(OC(C)=O)cc3o2)cc1
Kd: > 4 mM (inactive)

Cn1nnc2cc(C(=O)NC3CCCCC3)ccc21
Kd: > 4 mM (inactive)

Cc1noc(C)c1C(=O)Nc1ccccn1
Kd: > 4 mM (inactive)

CC(=O)Nc1cc(O)cc(O)c1
Kd: > 4 mM (inactive)

Cc1ccc(NC(=O)N2CCC(C(N)=O)CC2)cc1
Kd: > 4 mM (inactive)

CCN1CCc2c(sc(N)c2C#N)C1
Kd: > 4 mM (inactive)

O=C(Nc1nnc(C(F)(F)F)s1)c1cccnc1
Kd: > 4 mM (inactive)

COC(=O)c1ccc(N2CCOCC2)nc1
Kd: > 4 mM (inactive)

Nc1cc(=O)[nH]c(=S)n1-c1ccc(F)cc1
Kd: > 4 mM (inactive)

CSc1ccc(S(=O)(=O)N2CCCC2)cc1
Kd: > 4 mM (inactive)

c1cncc(Nc2nc(-c3ccncc3)cs2)c1
Kd: > 4 mM (inactive)

CC(C)C(=O)NC(=S)N1CCOCC1
Kd: > 4 mM (inactive)

OC1CSc2ncnn2C1 (centres undefined)
Kd: > 4 mM (inactive)

CNS(=O)(=O)c1ccc2[nH]c(=O)[nH]c2c1
Kd: > 4 mM (inactive)

O=c1[nH]nnc2sc3c(c12)CCCC3
Kd: > 4 mM (inactive)

O=C(O)CCC1NCC2CC1CN1CCCCC21 (centres undefined)
Kd: > 4 mM (inactive)

NCCc1nc2ccccc2[nH]1
Kd: > 4 mM (inactive)

CS(=O)(=O)N1CCN(c2ccccc2F)CC1
Kd: > 4 mM (inactive)

CNC(=S)Nc1ccc(C(=O)O)cc1
Kd: > 4 mM (inactive)

Nc1ccccc1C(=O)N1CCNC(=O)C1
Kd: > 4 mM (inactive)

C=C(C)C1Cc2c(ccc(C(=O)O)c2O)O1 (centres undefined)
Kd: > 4 mM (inactive)

O=C(O)CSCC(=O)Nc1cccc(O)c1
Kd: > 4 mM (inactive)

N#CCSc1nc(-c2ccccc2)cs1
Kd: > 4 mM (inactive)

CS(=O)(=O)N1CCN(c2ncccn2)CC1
Kd: > 4 mM (inactive)

O=C1Nc2ccccc2C1C1(O)C(=O)Nc2ccc(F)cc21 (centres undefined)
Kd: > 4 mM (inactive)

CC1(C)C(=O)C=C[C@@]2(C)C1CC(=O)[C@]1(C)C2CC[C@@]2(C)[C@H](c3ccoc3)OC(=O)[C@H]3O[C@]321 (some centres undefined)
Kd: > 4 mM (inactive)

CN(C)c1ccc(CNn2cnnc2)cc1
Kd: > 4 mM (inactive)

Cc1ccc2c(C)c(C(=O)Nc3nnc(C)s3)oc2c1
Kd: > 4 mM (inactive)

S=C(NCc1cccnc1)NC1CC1
Kd: > 4 mM (inactive)

Nn1c(CN2CCCCC2)nc2ccccc2c1=O
Kd: > 4 mM (inactive)

Nc1cc(=O)[nH]c(SCC(=O)NCc2ccccc2)n1
Kd: > 4 mM (inactive)

CN(C)C(=O)Nc1ccc(F)cc1F
Kd: > 4 mM (inactive)

CC(C)[C@@H]1CC[C@@H](C)C[C@H]1OC(=O)c1ccccc1
Kd: > 4 mM (inactive)

c1cc2n(c1)CCNC2c1ccncc1 (centres undefined)
Kd: > 4 mM (inactive)

O=C1C2C3C=CC(C3)C2C(=O)N1CCO (centres undefined)
Kd: > 4 mM (inactive)

COc1cc([C@H]2Oc3cc([C@H]4Oc5cc(O)cc(O)c5C(=O)[C@@H]4O)ccc3O[C@@H]2CO)ccc1O
Kd: > 4 mM (inactive)

CC12CCC3C(CC3(C)C)C(C)(CCC1=O)O2 (centres undefined)
Kd: > 4 mM (inactive)

Cc1ccc(CN2CCN(C(=O)C3CCC3)CC2)cc1
Kd: > 4 mM (inactive)

COc1ccc(S(N)(=O)=O)cc1
Kd: > 4 mM (inactive)

O=C(O)CC1NCCNC1=O (centres undefined)
Kd: > 4 mM (inactive)

COC(=O)C[C@H]1C2(C)CC34OC5(C)O[C@@]6([C@H](OC(C)=O)C(OC(C)=O)[C@]7(C)C(/C(=C(/O)C(C)C)C(=O)O[C@H]7c7ccoc7)[C@@]6(O5)[C@H](OC(C)=O)[C@@]3(O)C2OC(=O)C(C)C)[C@]14C (some centres undefined)
Kd: > 4 mM (inactive)

C#CCCCCCCCCCCCc1ccco1
Kd: > 4 mM (inactive)

CCOC(=O)c1c(C)nc2ccccn12
Kd: > 4 mM (inactive)

O=C1NC(=S)S/C1=C/c1ccncc1
Kd: > 4 mM (inactive)

O=C(NC1=NCCS1)c1ccc([N+](=O)[O-])cc1Cl
Kd: > 4 mM (inactive)

CC(=O)O[C@H]1CCC2(C)C3=C(CCC2C1(C)C)[C@@]1(C)CC[C@@H](C(C)CCC=C(C)C)[C@]1(C)CC3 (some centres undefined)
Kd: > 4 mM (inactive)

CC(=O)c1c(O)cc(C)n(Cc2ccccc2)c1=O
Kd: > 4 mM (inactive)

Nc1ccc(OC(F)(F)F)cc1
Kd: > 4 mM (inactive)

O/N=C1/CCCc2nonc21
Kd: > 4 mM (inactive)

Cc1nnsc1C(=O)N(C)c1ccccc1
Kd: > 4 mM (inactive)

CC(C)=CC(=O)Nc1ccccc1C(N)=O
Kd: > 4 mM (inactive)

CC(C1OC(C)(C)C(O)C1O)[C@@H]1CC[C@]2(C)C3=CCC4C(C)(C)C(=O)CC[C@]4(C)C3CC[C@@]12C (some centres undefined)
Kd: > 4 mM (inactive)

NC1=NC(=O)/C(=C\c2cccc(C(=O)O)c2)S1
Kd: > 4 mM (inactive)

CC(=O)Oc1c(C)cc(O)c2ccccc12
Kd: > 4 mM (inactive)

Cc1ccc(SCc2nc(-c3ccncc3)no2)cc1
Kd: > 4 mM (inactive)

O=C1CC2OCC=C3CN4CC[C@]56c7ccccc7N1C5[C@H]2[C@H]3CC46 (some centres undefined)
Kd: > 4 mM (inactive)
